Source: US7749548B2, “Composite for the improvement of the smell of the armpit” (Ajou Medics Co., Ltd., priority 2004, dated 2010)

Assays:
Format in all cases: in vivo, human
[1] = Side-effects reported by the volunteers during the 4-week application; conditions: 4 weeks, twice a day
[2] = system: axillary odor of volunteers with sweat bromidrosis; assay: Measurement of axillary odor by sanitary cotton, graded by two medical doctors
Excerpt: 1) Sanitary cottons are kept in both armpits for ten minutes by two medical doctors' inspection of armpit odor for classification of 4 grades.
“minimal” is almost smell-less;
“mild” is available smell within distance of 15 cm;
“moderate” is further than distance of 15 cm; and
“severe” is beyond the distance of 30 cm.
(§1) Group I Test group with the composition of example 1
(§2) No one was allowed to use other cosmetics, perfume, and anti-germ soap not to influence any result.
Measurements of axillary odor were decided according to the smell degree by means of sanitary cotton, which were classified into four (4) grades. Namely, sanitary cottons are kept in both armpits for ten minutes by two medical doctors' inspection of armpit odor for classification of 4 grades as shown in the Table 1:
(2) Judgment of Results: After two (2) and four (4) weeks of the application of the composition, the odor grades were judged by means of sanitary cottons from both armpits of the participants.
Measurement of axillary ordor was carried out by two medical doctors by using sanitary cottons in order to evaluate objectively as shown below

[3] = system: sweat bromidrosis (axillary odor) of volunteers; assay: Self-assessment of improvement of armpit odor by individual queries, 4 weeks of spraying twice a day; conditions: after 4 weeks
Excerpt: 1. Application of Medical Treatment Composition of Example 1
2) Volunteers are selected from the group who can smell the ordor of sweat bromidrosis by sanitary cotton method and who smell over “mild” class.
3) Fifteen volunteers who were fitted for the above criteria and smell over “mild” class were selected.
as §1, §2
Subjective judgment of odor degree through individual queries, which include:
4) degrees of improvement of odor level during the period of application; and
D) Percentage of Improvement by Self-Assessment
The degree of improvement of ordor after 4 weeks were measured by self-assessment. All of 15 persons replied over 50% of improvement in the experimental group, while 10 persons in comparison group expressed positive improvement and four persons' replied negative.

[4] = 15 volunteers, objective odor grade
[5] = sprayed twice a day in armpit, 15 volunteers

For `CCO` [80% ethanol, ethanol], the “Number and percentage of side-effect: No side-effect” value [1] was 12 (80%) persons (%), the “Number and percentage of side-effect: Side effect” value ([1]; slight tingle feel right after application) was 3 (20%) persons (%) and the “Degree of improvement: 1stage of improvement” value ([2]; 15 volunteers, after 4 weeks) was 6 (40%) persons (%). For the same molecule, the “Degree of improvement: 2 stage or more of improvement” value ([2]; 15 volunteers, after 4 weeks) was 1 (7%) persons (%), the “Degree of improvement: no improvement” value ([2]; 15 volunteers, after 4 weeks) was 8 (53%) persons (%) and the “Initiating period of improvement: After 2 weeks” value [2, 4] was 1 (7%) persons (%). The “Initiating period of improvement: Not improved” value [2, 4] was 8 (53%) persons (%), the “Initiating period of improvement: Within 2 weeks” value [2, 4] was 6 (40%) persons (%) and the “Persons who showed improvement of odor grade” value ([2]; after 4 weeks, out of 15) was 7 persons. For the same molecule, the “Persons among the improved who showed 2 stages or more of improvement” value ([2]; after 4 weeks, listed as Group II) was “one and One”, the “Persons among the improved with improvement after two weeks application” value ([2]; after two weeks application) was 6 persons and the “Persons who expressed positive improvement (self-assessment)” value ([3]; of 15) was 10 persons. The “Persons who replied negative (self-assessment)” value ([3]; of 15) was “four”, the “Percentage of improvement by self-assessment: Got worse” value [3, 5] was 0 (0%) persons (%) and the “Percentage of improvement by self-assessment: Improved 25%” value [3, 5] was 1 (7%) persons (%). The “Percentage of improvement by self-assessment: Improved 50%” value [3, 5] was 2 (13%) persons (%), the “Percentage of improvement by self-assessment: Improved 75%” value [3, 5] was 7 (47%) persons (%) and the “Percentage of improvement by self-assessment: Improved 100%” value [3, 5] was 1 (7%) persons (%). For the same molecule, the “Percentage of improvement by self-assessment: Not applicable” value [3, 5] was 4 (27%) persons (%).
